In PubChem BioAssay AID179 (DTP/NCI, 2004):
Several values for one entry are separate records, joined by “and”; a condition that tells them apart may be missing. Equal values may be shown once. Activity calls are given as the source filed them.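 Rule for the calls: active = compounds giving half or more protection of infected cells from virus-caused growth loss, again on retest; inactive = the rest.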

Tested on: CEM cells HIV-1 protection, formazan growth assay
Assay: NCI AIDS Antiviral Assay
Details: for IC50: measured here: growth of uninfected CEM cells
Method in brief: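 Human CEM cells, uninfected and HIV-1-infected, received five drug concentrations, and growth was read by soluble formazan assay. Compounds giving at least 50% protection were retested; reproducible 100% protection defined confirmed active.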

Row | SMILES | EC50 | IC50 | outcome
1 | CN(C)P1(=O)NCC(C(C)(C)C)CO1 (centres undefined) | > 562 µM | > 562 µM | 
2 | CCO[C@@H]1OC(=O)[C@H]2C(c3ccccc3Cl)=NO[C@@H]12 | > 178 µM | > 178 µM | 
3 | CCCCN=C(OC1C=CCCC1)SC (centres undefined) | > 200 µM | 155 µM | 
4 | CCC(=S)N(C)O | > 20.9 µM | 0.174 µM | 
5 | Cc1cccc(NC(=S)NC(=O)c2ccccc2)n1 | > 200 µM | > 200 µM | 
6 | Cc1nc2ccccc2c(=O)n1CC(=O)O |  |  | inactive
7 | COc1cc(/C=C2/SC(c3ccccc3)N(c3cccc([N+](=O)[O-])c3)C2=O)cc(OC)c1OC (centres undefined) | > 200 µM | 107 µM | 
8 | COC(=O)c1cc(CC(C)C)c2c(c1)[nH]c1ccccc12 | > 35.5 µM | > 35.5 µM | 
9 | CN(C)Cc1cc(N=Nc2cccc(Cl)c2)ccc1O | > 20 µM | 4.79 µM | 
10 | C=CCn1c(N)c(C#N)c(C#N)c1CCC | > 200 µM | > 200 µM | 
11 | O/C(=C\c1nc2ccccc2nc1NC12CC3CC(CC(C3)C1)C2)c1ccc(Br)cc1 | > 200 µM | > 200 µM | 
12 | O=c1c(OS(=O)(=O)O)c(-c2ccc(OS(=O)(=O)O)cc2OS(=O)(=O)O)oc2cc(OS(=O)(=O)O)cc(OS(=O)(=O)O)c12 | > 100 µM | > 100 µM | 
13 | COc1ccc(NCc2cnc3nc(N)nc(N)c3c2C)cc1 | > 200 µM | 0.437 µM | 
14 | CCOP(=O)(OCC)C(C)(CC)NC(=O)C(C(F)(F)F)C(F)(F)F (centres undefined) | > 200 µM | 105 µM | inactive
15 | O=CC1(c2ccccc2)NC(=O)NC1=O (centres undefined) | > 200 µM | > 200 µM | 
16 | COC(=O)c1ccc(N=Cc2ccc(C=Nc3ccc(C(=O)OC)cc3)cc2)cc1 | > 12.9 µM | > 12.9 µM | 
17 | Cc1nc2c(C#N)c3n(c2c(=O)o1)CCCC3 | > 200 µM | > 200 µM | 
18 | Cc1ccc2nsnc2c1[N+](=O)[O-] | > 257 µM | > 257 µM | 
19 | CCCCCC=C(c1cc(Cl)c(OC)c(C(=O)NO)c1)c1cc(Cl)c(OC)c(C(=O)NO)c1 | > 200 µM | 1.95 µM | 
20 | CCOC(=O)CNC(=O)CNC(=O)CNC(=O)CNNc1c(OCc2ccccc2)c(=O)c1=O | > 200 µM | > 200 µM | 
21 | Cc1cc(C)c(NS(=O)c2cccc(Cl)c2)c(C)c1 (centres undefined) | > 123 µM | > 123 µM | 
22 | COc1cc2c(cc1OC)NC(C)=CC(C)=N2 | > 200 µM | > 200 µM | 

Row | SMILES | EC50 | IC50 | outcome
23 | CC1=Nc2ccccc2NC(C)(C)C1 | > 955 µM | 56.2 µM and 37.2 µM and > 200 µM | 
24 | CCC12C=CCN3CC[C@@]4(c5ccc(OC)cc5N(C)[C@H]4[C@@](O)(C(=O)OC)[C@@H]1OC(C)=O)C32 (some centres undefined) |  |  | inactive
25 | S=c1ncc2n[nH]nc2[nH]1 | > 200 µM | > 200 µM | 
26 | O=C(CCSCCC(=O)NNc1ccccc1)NNc1ccccc1 | > 20 µM | > 20 µM | 
27 | CCCC[C@H]1[C@@H](OCOc2ccccc2)COC(=O)N1[C@H](C)c1ccccc1 | > 200 µM | 21.4 µM | 
28 | CC(C)(C)OC(=O)N1N=NC2C3CC(=O)C(O3)C21 (centres undefined) | > 977 µM | 11 µM | 
29 | COc1ccc(C2N(c3ccc(F)cc3)C(=O)N3C(c4ccc(OC)cc4)N(c4ccc(F)cc4)C(=O)N23)cc1 (centres undefined) | > 200 µM | > 200 µM | 
30 | CN1CC(C)(C)C(O)c2ccccc21 (centres undefined) | > 955 µM | 525 µM | 
31 | CCCN(CCCCC(NC(C)=O)C(=O)NCc1ccccc1)C(=O)NC (centres undefined) | > 661 µM | > 661 µM | 
32 | N#CC(C(=O)CCC(=O)Nc1ccc(Cl)cc1)c1ccccc1Cl (centres undefined) | > 186 µM | > 186 µM | 
33 | O=C(/C=C/c1ccccc1)NC(=S)NCc1ccco1 | > 200 µM | > 200 µM | 
34 | Cc1ccc(C)c(N=Nc2c(S(=O)(=O)O)cc3cc(NC(=O)Nc4ccc5c(O)c(N=Nc6ccc7cc(S(=O)(=O)O)ccc7c6)c(S(=O)(=O)O)cc5c4)ccc3c2O)c1 | 16.2 µM | > 100 µM | 
35 | CC(=O)OC(C)C(=O)C1c2cccc(O)c2C(=O)c2c(O)cc(C)cc21 (centres undefined) | > 191 µM | 3.24 µM | 
36 | COCC(C)(COP(=O)(N1CCOCC1)N1CCOCC1)CC(C)COP(=O)(N1CCOCC1)N1CCOCC1 (centres undefined) |  |  | inactive
37 | CC(C)(C)O/N=C/c1cc(NC(=S)c2ccsc2)ccc1Cl | 2.14 µM | 9.55 µM | 
38 | O=C(CNc1ccccc1C(=O)O)Nn1cnc2ccc(S(=O)(=O)Nc3ccccc3C(=O)O)cc2c1=O | > 200 µM | > 200 µM | 
39 | CC1CCC2(CO)C(CO)=CCCC2[C@@]1(C)CC/C(=C/CO)CO (some centres undefined) |  |  | inactive
40 | O=c1c(SCc2ccc(Cl)c(Cl)c2)c(SCc2ccc(Cl)c(Cl)c2)cnn1-c1ccccc1 | > 6.76 µM | > 6.76 µM | 
41 | Nc1ccn(C2CCC3(CO)CC23)c(=O)n1 (centres undefined) | > 50.1 µM | > 50.1 µM | 
42 | O=C1NC2c3c(I)sc(I)c3C(O)C2O1 (centres undefined) | > 200 µM | 141 µM | 
43 | CC1=CP(=O)(c2ccccc2)C=C(C)C1=C(Cl)Cl (centres undefined) |  |  | inactive
44 | S=P(NC1CCCCC1)(NC1CCCCC1)NC1CCCCC1 | > 200 µM | > 200 µM | 

Row | SMILES | EC50 | IC50 | outcome
45 | O=[N+]([O-])c1cc([As](=O)(O)O)ccc1O | > 200 µM | > 200 µM | 
46 | O=C(CCl)Nc1ccccc1-c1ccccc1NC(=O)CCl |  |  | inactive
47 | O=C1c2c(ccc3c2CCC3)CC1Cc1ccc2c(c1)CCC2 (centres undefined) | > 200 µM | 35.5 µM | 
48 | CC1=C(C(=O)Nc2ccccc2C)C(c2ccccc2)C(C(=O)Nc2ccccc2C)=C(C)N1 | > 11.5 µM | > 11.5 µM | 
49 | Cc1cc(C)nc(NS(=O)(=O)c2ccc(NC(=O)c3cccc4c(Nc5ccc(S(=O)(=O)Nc6cc(C)on6)cc5)c5ccccc5nc34)cc2)n1 | > 35.5 µM | > 35.5 µM | 
50 | COc1cc(OC)c2nc(C)c(CCCl)c(Cl)c2c1 | > 200 µM | > 200 µM | 
51 | O=c1cc([O-])[n+](C2OC(CO)C(O)C2O)c2sccn12 (centres undefined) | > 63.1 µM | > 63.1 µM | 
52 | Cc1cccc(N=C2NC(=O)C(CC(=O)Nc3ccc(C)cc3C)S2)c1 (centres undefined) | > 26.9 µM | > 26.9 µM | 
53 | Nc1ccc(C(=O)Oc2ccccc2)c(O)c1 | > 200 µM | > 200 µM | 
54 | Cn1c(=O)c2nc3n(c2n(C)c1=O)C(=O)C(C(=O)O)N=N3 (centres undefined) | > 200 µM | > 200 µM | 
55 | Nc1nc(N)nc(-c2ccccc2-c2nc(N)nc(N)n2)n1 | > 200 µM | > 200 µM | 
56 | Cc1cccc(NC(=O)c2cc3cc(N=Nc4ccc(Br)cc4)ccc3oc2=O)c1 |  |  | inactive
57 | COC(=O)/C(=N\Nc1nc(=S)[nH]n1N)C(C#N)c1ccccc1 (centres undefined) | > 178 µM | > 178 µM | 
58 | O=C1NC(=O)c2c1n(Cc1ccccc1)c(=O)n2Cc1ccccc1 | > 77.6 µM | > 77.6 µM | 
59 | Cc1ccc(NC(=O)CC2C(=O)Nc3ccccc3S2=O)cc1C (centres undefined) | > 15.1 µM | > 15.1 µM | 
60 | COc1ccc(C[C@@H]2NC[C@@H](O)[C@@H]2OC(C)=O)cc1 | > 4.17 µM | 0.017 µM | 
61 | COC(=O)/C=C1/Nc2c(n(C)c(=O)n(C)c2=O)NC1=O | > 200 µM | > 200 µM | 
62 | C=CC(C)(C)C(=C)C(=O)N(C)c1ccccc1I | > 200 µM | 89.1 µM | 
63 | COc1ccc2nc3cc(Cl)ccc3c(NCCNC(=O)Cn3c(=O)n(C)c(=O)c4c3nc3c(c(=O)n(C)c(=O)n3C)[n+]4[O-])c2c1 | > 100 µM | 39.8 µM | 
64 | OC(CC(O)(C(F)(F)F)C(F)(F)F)C(O)c1ccco1 (centres undefined) | > 200 µM | 58.9 µM | 
65 | c1ccc(SC2=C(Sc3ccccc3)CC2)cc1 | > 200 µM | 89.1 µM | 
66 | O=C(CCCN1CCC2(CC1)C(=O)NCN2c1ccccc1)c1ccc(F)cc1 | > 200 µM | 13.5 µM | 

Row | SMILES | EC50 | IC50 | outcome
67 | C#CCN(CC#C)C(=O)C(=O)c1c[nH]c2ccc(OC)cc12 | > 200 µM | 40.7 µM | 
68 | COc1ccc2c3c(n(Cc4ccccc4)c(=O)c2c1)-c1cc(OC)c(OC)cc1C3C (centres undefined) | > 6.31 µM | > 6.31 µM | 
69 | Cc1cccc2c1CCC21OC(=O)c2c1ccc1ccccc21 (centres undefined) |  |  | inactive
70 | Fc1ccc(/C=N\N=C(N/N=C/c2ccc(F)cc2)N/N=C/c2ccc(F)cc2)cc1 | > 200 µM | 19.5 µM | 
71 | N#CCCN(CCC#N)Cc1c(O)c(O)c(CN(CCC#N)CCC#N)c2ccccc12 | 115 µM | 126 µM | 
72 | O=C(Cc1ccccc1)NN1C(=O)/C(=C\c2ccc(O)cc2)SC1=Nc1ccccc1 | > 31.6 µM | > 31.6 µM | 
73 | CCCNCc1c2c(O)c3c(O)c(C)c4c(c3c1O)C(=O)C(C)(O/C=C/C(OC)C(C)C(OC(C)=O)C(C)C(O)C(C)C(O)C(C)/C=C/C=C(/C)C(=O)N2)O4 (centres undefined) | > 200 µM | 3.8 µM | 
74 | CSc1c(C#N)c(=O)n(N)c2n[nH]c(C)c12 | > 200 µM | > 200 µM | 
75 | CC12CCC(=O)C=C1CCC1C2CCC2(C)C1CCC2(O)C1(O)CCC2C3CCC4=CC(=O)CCC4(C)C3CCC21C (centres undefined) | > 100 µM | 55 µM | 
76 | NNC(=O)C1CC2c3ccccc3C1c1ccccc12 (centres undefined) |  |  | inactive
77 | Cc1ccc(SSc2ccc(C)cc2C(=O)O)c(C(=O)O)c1 | > 200 µM | > 200 µM | 
78 | O=C1C=C(c2c(-c3ccccc3)[nH]c3ccccc23)C(=O)N1c1ccccc1 | > 200 µM | 15.5 µM | 
79 | COc1cc2c(cc1OC)C1[C@@H](c3ccccc3)OCN1CC2 (some centres undefined) |  |  | inactive
80 | OCc1cccnc1 | > 200 µM | > 200 µM | 
81 | CC(=O)OC[C@@H]1[C@H]2CC(=O)O[C@H]2C[C@H]1OC(C)=O |  |  | inactive
82 | O=C(O)c1cc(N=Nc2ccc(/C=C/c3ccc(N=Nc4ccc(O)c(C(=O)O)c4)cc3S(=O)(=O)O)c(S(=O)(=O)O)c2)ccc1O | 22.4 µM | 36.3 µM | 
83 | Cc1ccc2nn(-c3ccc(O)cc3)[n+]([O-])c2c1 | > 200 µM | > 200 µM | 
84 | Cn1c(=O)c2c(nc3n2C(CCl)CO3)n(C)c1=O (centres undefined) |  |  | inactive
85 | CCOC(=O)C1C(C(C)C)C2(C#N)C(=N)OC1(C)C2(C#N)C#N (centres undefined) | > 200 µM | 49 µM | 
86 | Nc1ccc2oc3cccnc3c2c1 | > 977 µM | 372 µM | 
87 | O=C1[C@@H]2C(c3cccc([N+](=O)[O-])c3)=NO[C@@H]2C(=O)N1c1ccc(Cc2ccc(N3C(=O)[C@H]4C(c5cccc([N+](=O)[O-])c5)=NO[C@H]4C3=O)cc2)cc1 | > 38 µM | > 38 µM | 
88 | CSc1ncnc2nc(C(O)c3ccccc3)[nH]c12 (centres undefined) |  |  | inactive
